Source: patent US7482455B2, “Chemical compounds” (SmithKline Beecham Corporation, priority 2002, dated 2009)
Structures can show the parent of a compound that is named as a salt.

Target: T1, hYAK3 (Homo sapiens, UniProt O43781)
T1 construct: containing amino acid residues 124-526 of human YAK3; GST (N); His6 (C); made in house; host or cells: baculovirus expression system in Sf9 cells
T1 sequence (O43781 124-526): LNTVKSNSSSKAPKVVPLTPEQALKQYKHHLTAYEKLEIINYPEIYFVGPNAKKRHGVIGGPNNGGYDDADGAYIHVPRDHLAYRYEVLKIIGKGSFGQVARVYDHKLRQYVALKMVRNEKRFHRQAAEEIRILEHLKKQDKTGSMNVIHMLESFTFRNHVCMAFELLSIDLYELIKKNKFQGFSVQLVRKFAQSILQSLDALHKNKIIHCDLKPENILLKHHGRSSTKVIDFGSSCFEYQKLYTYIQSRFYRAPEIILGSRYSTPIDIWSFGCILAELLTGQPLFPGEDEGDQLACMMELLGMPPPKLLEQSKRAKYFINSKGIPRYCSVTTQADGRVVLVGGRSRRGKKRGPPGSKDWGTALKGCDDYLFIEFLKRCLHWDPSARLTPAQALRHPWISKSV
Assay: YAK3 Scintillation Proximity Assay using Ser164 of myelin basic protein as the phosphoacceptor (kinase assay of purified hYAK3)
Assay type: biochemical
Conditions: purified GST-hYak3-His6 (residues 124-526), 4 nM; 0.001 mM ATP; 4 μM Ser164 peptide; 2 hours at room temperature; compounds 50 μM to 0.5 nM
Protocol: YAK3 Scintillation Proximity Assays Using Ser164 of Myelin Basic Protein as the Phosphoacceptor
Source of Ser164 Substrate Peptide:
The biotinylated Ser164, S164A peptide(Biotinyl -LGGRDSRAGS*PMARR—OH), sequence derived from the C-terminus of bovine myelin basic protein (MBP) with Ser162 substituted as Ala162, was purchased from California Peptide Research Inc. (Napa, Calif.), and its purity was determined by HPLC. Phosphorylation occurs at position 164 (marked S* above). The calculated molecular mass of the peptide was 2166 dalton. Solid sample was dissolved at 10 mM in DMSO, aliquoted, and stored at −20° C. until use.
hYAK3: Glutathione-S-Transferase (GST)-hYak3-His6 containing amino acid residues 124-526 of human YAK3 was purified from baculovirus expression system in Sf9 cells using Glutathione Sepharose 4B column chromatography followed by Ni-NTA-Agarose column chromatography. Purity greater than 65% typically was achieved. Samples, in 50 mM Tris, 150 mM NaCl, 10% glycerol, 0.1% Triton, 250 mM imidazole, 10 mM β-mercapto ethanol, pH 8.0.—
were stored at −80° C. until use.
Kinase Assay of Purified hYAK3:
Assays were performed in 96 well (Costar, Catalog No. 3789) or 384 well plates (Costar, Catalog No. 3705). Reaction (in 20, 25, or 40 μl volume) mix contained in final concentrations 25 mM Hepes buffer, pH 7.4; 10 mM MgCl2; 10 mM β-mercapto ethanol; 0.0025% Tween-20; 0.001 mM ATP, 0.1 ? Ci of [ ? -^33P]ATP; purified hYAK3 (7-14 ng/assay; 4 nM final); and 4 μM Ser164 peptide. Compounds, titrated in DMSO, were evaluated at concentrations ranging from 50 μM to 0.5 nM. […] Reactions were incubated for 2 hours at room temperature and were stopped by a 75 ul addition of […] Streptavidin Scintillation Proximity beads (Amersham Pharmacia Biotech, Catalog No. RPNQ 0007) in PBS, pH 7.4, 10 mM EDTA, 0.1% Triton X-100, 1 mM ATP. Under the assay conditions defined above, the Km(apparent) for ATP was determined to be 7.2+/−2.4 μM. Assay results are depicted in Table 1.

IC50	Compound
< 1000 nM	COc1ccc2cc(C(=O)O)c(NCCCN)nc2c1 [Example 2, 2-(3-amino-propylamino)-7-methoxy-quinoline-3-carboxylic acid]
< 1000 nM	COc1ccc2cc(C(=O)O)c(NCc3ccccc3)nc2c1 [Example 3, 2-benzylamino-7-methoxy-quinoline-3-carboxylic acid]
< 1000 nM	COc1ccc2cc(C(=O)O)c(NCCc3ccccc3)nc2c1 [Example 4, 7-methoxy-2-phenethylamino-quinoline-3-carboxylic acid]
< 1000 nM	COc1ccc2cc(C(=O)O)c(NCCc3ccncc3)nc2c1 [Example 5, 7-methoxy-2-(2-pyridin-4-yl-ethylamino)-quinoline-3-carboxylic acid]
< 1000 nM	COc1ccc2cc(C(=O)O)c(NCCN(C)C)nc2c1 [Example 6, 2-(2-dimethylamino-ethylamino)-7-methoxy-quinoline-3-carboxylic acid hydrochloride]
< 1000 nM	COc1ccc2cc(C(=O)O)c(NC3Cc4ccccc4C3)nc2c1 [Example 7, 2-(indan-2-ylamino)-7-methoxy-quinoline-3-carboxylic acid]
1000 to 10000 nM	COc1ccc2cc(C(=O)O)c(NCCCN3CCOCC3)nc2c1 [Example 8, 7-methoxy-2-(3-morpholin-4-yl-propylamino)-quinoline-3-carboxylic acid]
< 1000 nM	O=C(O)c1cc2ccc(O)cc2nc1Nc1ccccc1Cl [Example 12, 2-(2-Chloro-phenylamino)-7-hydroxy-quinoline-3-carboxylic acid]

Compound	IC50
COc1ccc2cc(C(=O)O)c(NCCCNC(=O)OC(C)(C)C)nc2c1 [Example 1, 2-(3-tert-butoxycarbonylamino-propylamino)-7-methoxy-quinoline-3-carboxylic acid]	1000 to 10000 nM
